Results taken from patent EP0399422A1, “Benzocycloalkane derivatives and production thereof” (Takeda Chemical Industries, Ltd., priority 1989, dated 1990).

Tested on: Acyl-CoA:cholesterol acyl transferase (ACAT)
Assay: Acyl-CoA:cholesterol acyl transferase (ACAT) inhibiting activity
Format: biochemical, male Sprague-Dawley rats
Design: tested at 1 µM
Settings: inhibition of labeled cholesterol ester formation at 10⁻⁶ M of the test compounds; small intestine mucosa microsome fraction
Protocol: An ACAT enzyme preparation was obtained from the small intestine mucosa microsome fraction from male Sprague-Dawley rats of 6 weeks of age fasted for 20 hours, as described by Heider et al. [Journal of Lipid Research, 24, 1127 (1982)].
The ACAT activity was calculated by determining the yield of a labeled cholesterol ester from [1-¹⁴C]oleoyl-CoA and endogenous cholesterol using the method of Helgerud et al. [Journal of Lipid Research, 22, 271 (1981)].
The inhibition percentages of the labeled cholesterol ester formation at 10⁻⁶ M of the test compounds are shown in Table 1 as ACAT inhibiting activity indices.

% ACAT inhibition	SMILES
58%	COc1cc(CN(C(=O)Nc2ccc(F)cc2F)C2Cc3ccccc3C2)c(OC)c(C)c1C [Example 35, N-(2,4-Difluorophenyl)-N′-(2-indanyl)-N′-(2,5-dimethoxy-3,4-dimethylbenzyl)urea]
72%	COc1cc(C)c(CN(C(=O)Nc2ccc(F)cc2F)C2Cc3ccccc3C2)cc1C [Example 36, N-(2,4-Difluorophenyl)-N′-(2-indanyl)-N′-(4-methoxy-2,5-dimethylbenzyl)urea]
93%	Cc1cc(CN(C(=O)Nc2ccc(F)cc2F)C2Cc3ccccc3C2)c(C)cc1O [Example 37, N-(2,4-Difluorophenyl)-N′-(4-hydroxy-2,5-dimethylbenzyl)-N′-(2-indanyl)urea]
89%	Cc1cc(CN(C(=O)Nc2ccc(F)cc2F)C2Cc3ccccc3C2)c(C)c(C)c1O [Example 39, N-(2,4-Difluorophenyl)-N′-(4-hydroxy-2,3,5-trimethylbenzyl)-N′-(2-indanyl)urea]
83%	CC(C)c1cc(CN(C(=O)Nc2ccc(F)cc2F)C2Cc3ccccc3C2)cc(C(C)C)c1O [Example 40, N-(2,4-Difluorophenyl)-N′-(4-hydroxy-3,5-diisopropylbenzyl)-N′-(2-indanyl)urea]
95%	Cc1cc(O)c(C(C)(C)C)cc1CN(C(=O)Nc1ccc(F)cc1F)C1Cc2ccccc2C1 [Example 41, N-(5-tert-Butyl-4-hydroxy-2-methylbenzyl)-N′-(2,4-difluorophenyl)-N-(2-indanyl)urea]
62%	CC(C)(C)c1cc(CN(C(=O)Nc2ccc(F)cc2F)C2Cc3ccccc3C2)cc(C(C)(C)C)c1O [Example 42, N-(3,5-Di-tert-butyl-4-hydroxybenzyl)-N′-(2,4-difluorophenyl)-N-(2-indanyl)urea]
63%	O=C(Nc1ccc(F)cc1F)N(Cc1ccccc1)C1CCc2ccccc2C1 (stereo not shown) [Example 44, N-Benzyl-N′-(2,4-difluorophenyl)-N-(1,2,3,4-tetrahydro-2-naphthyl)urea]
96%	Cc1cc(O)c(C(C)C)cc1CN(C(=O)Nc1ccc(F)cc1F)C1Cc2ccccc2C1 [Example 45, N-(2,4-Difluorophenyl)-N′-(4-hydroxy-5-isopropyl-2-methylbenzyl)-N′-(2-indanyl)urea]
77%	Cc1cc(CN(C(=O)Nc2ccc(F)cc2F)C2Cc3ccccc3C2)c(C(C)C)cc1O [Example 46, N-(2,4-Difluorophenyl)-N′-(4-hydroxy-2-isopropyl-5-methylbenzyl)-N′-(2-indanyl)urea]
89%	O=C(Nc1ccc(F)cc1F)N(Cc1ccccc1)C1CCCc2ccccc2C1 (stereo not shown) [Example 49, N-Benzyl-N′-(2,4-difluorophenyl)-N-(6,7,8,9-tetrahydro-5H-6-benzocycloheptenyl)urea]

More lines, now with the values behind:

SMILES	% ACAT inhibition
O=C(Nc1ccc(F)cc1F)N(Cc1ccccc1)C1Cc2ccccc2C1 [Example 2, N-Benzyl-N′-(2,4-difluorophenyl)-N-(2-indanyl)urea]	65%
O=C(Nc1ccc(F)cc1F)N(Cc1ccc(Cl)cc1)C1Cc2ccccc2C1 [Example 5, N-(4-Chlorobenzyl)-N′-(2,4-difluorophenyl)-N-(2-indanyl)urea]	76%
CC(c1ccccc1)N(C(=O)Nc1ccc(F)cc1F)C1Cc2ccccc2C1 (stereo not shown) [Example 6, N-(2,4-Difluorophenyl)-N′-(2-indanyl)-N′-(1-phenylethyl)urea]	80%
CCC(c1ccccc1)N(C(=O)Nc1ccc(F)cc1F)C1Cc2ccccc2C1 (stereo not shown) [Example 7, N-(2,4-Difluorophenyl)-N′-(2-indanyl)-N′-(1-phenylpropyl)urea]	72%
O=C(Nc1ccc(F)cc1F)N(C1Cc2ccccc2C1)C(c1ccccc1)c1ccccc1 [Example 9, N-(2,4-Difluorophenyl)-N′-(2-indanyl)-N′-diphenyl methylurea]	53%
Cc1ccccc1CN(C(=O)Nc1ccc(F)cc1F)C1Cc2ccccc2C1 [Example 10, N-(2,4-Difluorophenyl)-N′-(2-indanyl)-N′-(2-methylbenzyl)urea]	72%
Cc1cccc(CN(C(=O)Nc2ccc(F)cc2F)C2Cc3ccccc3C2)c1 [Example 11, N-(2,4-Difluorophenyl)-N′-(2-indanyl)-N′-(3-methylbenzyl)urea]	64%
Cc1ccc(CN(C(=O)Nc2ccc(F)cc2F)C2Cc3ccccc3C2)cc1 [Example 12, N-(2,4-Difluorophenyl)-N′-(2-indanyl)-N′-(4-methylbenzyl)urea]	77%
CC(C)c1ccc(CN(C(=O)Nc2ccc(F)cc2F)C2Cc3ccccc3C2)cc1 [Example 13, N-(4-Isopropylbenzyl)-N′-(2,4-difluorophenyl)-N-(2-indanyl)urea]	86%
Cc1ccc(CN(C(=O)Nc2ccc(F)cc2F)C2Cc3ccccc3C2)c(C)c1 [Example 15, N-(2,4-Difluorophenyl)-N′-(2-indanyl)-N′-(2,4-dimethylbenzyl)urea]	88%
Cc1ccc(C)c(CN(C(=O)Nc2ccc(F)cc2F)C2Cc3ccccc3C2)c1 [Example 16, N-(2,4-Difluorophenyl)-N′-(2-indanyl)-N′-(2,5-dimethylbenzyl)urea]	86%
Cc1cc(C)c(CN(C(=O)Nc2ccc(F)cc2F)C2Cc3ccccc3C2)c(C)c1 [Example 17, N-(2,4-Difluorophenyl)-N′-(2-indanyl)-N′-(2,4,6-trimethylbenzyl)urea]	75%
COc1ccccc1CN(C(=O)Nc1ccc(F)cc1F)C1Cc2ccccc2C1 [Example 19, N-(2,4-Difluorophenyl)-N′-(2-indanyl)-N′-(2-methoxybenzyl)urea]	55%
COc1ccc(CN(C(=O)Nc2ccc(F)cc2F)C2Cc3ccccc3C2)c(OC)c1 [Example 20, N-(2,4-Difluorophenyl)-N′-(2-indanyl)-N′-(2,4-dimethoxybenzyl)urea]	72%
COc1cc(CN(C(=O)Nc2ccc(F)cc2F)C2Cc3ccccc3C2)cc(OC)c1OC [Example 22, N-(2,4-Difluorophenyl)-N′-(2-indanyl)-N′-(3,4,5-trimethoxybenzyl)urea]	55%
O=C(Nc1ccc(F)cc1F)N(Cc1cccs1)C1Cc2ccccc2C1 [Example 23, N-(2,4-Difluorophenyl)-N′-(2-indanyl)-N′-(2-thienylmethyl)urea]	57%
O=C(Nc1ccc(F)cc1F)N(CC1CCCCC1)C1Cc2ccccc2C1 [Example 26, N-Cyclohexylmethyl-N′-(2,4-difluorophenyl)-N-(2-indanyl)urea]	60%
Cc1cc(C)c2c(c1)CC(N(Cc1ccccc1)C(=O)Nc1ccc(F)cc1F)C2 (stereo not shown) [Example 27, N-Benzyl-N′-(2,4-difluorophenyl)-N-(4,6-dimethyl-2-indanyl)urea]	58%
COc1ccc(OC)c2c1CC(N(Cc1ccccc1)C(=O)Nc1ccc(F)cc1F)C2 [Example 28, N-Benzyl-N′-(2,4-difluorophenyl)-N-(4,7-dimethoxy-2-indanyl)urea]	56%
COc1cc(CN(C(=O)Nc2ccc(F)cc2F)C2Cc3ccccc3C2)ccc1O [Example 33, N-(2,4-Difluorophenyl)-N′-(4-hydroxy-3-methoxybenzyl)-N′-(2-indanyl)urea]	57%
